Assay in all cases: biochemical
What all share (parameters): KINOMEscan active-site-directed competition binding panel, 468 kinases, percent of DMSO control at 1 uM
Holding throughout (conditions): KINOMEscan binding, percent of DMSO control; read-out: Ctrl%

Assay [1] deals with T1, ARK5 (Homo sapiens, UniProt O60285).
T1 construct: gene NUAK1

Assay [2] addresses EPHA6 (Homo sapiens, UniProt Q9UF33).
In assay [3] the target is HCK (Homo sapiens, UniProt P08631).
The target of assay [4] is PRKD3 (Homo sapiens, UniProt O94806).
The target of assay [5] is T2, MST4 (Homo sapiens, UniProt Q9P289).
T2 construct: gene STK26

The target in assay [6] is SGK2 (Homo sapiens, UniProt Q9HBY8).
The target of assay [7] is T3, VPS34 (Homo sapiens, UniProt Q8NEB9).
T3 construct: gene PIK3C3

The target of assay [8] is T4, MRCKB (Homo sapiens, UniProt Q9Y5S2).
T4 construct: gene CDC42BPB

For assay [9], the target named is CSNK1G1 (Homo sapiens, UniProt Q9HCP0).
The target of assay [10] is PDPK1 (Homo sapiens, UniProt O15530).
Sequence of PDPK1 (O15530 whole entry): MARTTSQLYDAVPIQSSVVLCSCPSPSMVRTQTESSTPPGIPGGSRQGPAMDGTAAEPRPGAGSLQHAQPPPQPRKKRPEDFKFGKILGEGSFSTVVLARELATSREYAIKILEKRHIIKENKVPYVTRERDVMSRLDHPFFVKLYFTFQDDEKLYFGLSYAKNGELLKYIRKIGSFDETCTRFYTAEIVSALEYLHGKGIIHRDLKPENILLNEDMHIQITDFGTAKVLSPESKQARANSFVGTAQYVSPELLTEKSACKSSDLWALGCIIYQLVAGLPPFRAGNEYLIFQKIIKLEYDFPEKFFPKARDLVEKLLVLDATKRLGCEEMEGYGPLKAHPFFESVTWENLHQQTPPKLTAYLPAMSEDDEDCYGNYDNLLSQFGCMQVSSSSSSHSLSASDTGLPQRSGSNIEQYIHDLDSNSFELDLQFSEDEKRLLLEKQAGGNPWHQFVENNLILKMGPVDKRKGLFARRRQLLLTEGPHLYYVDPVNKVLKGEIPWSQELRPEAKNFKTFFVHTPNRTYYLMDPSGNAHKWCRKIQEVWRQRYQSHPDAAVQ
Assay [11] concerns the target T5, FAK (Homo sapiens, UniProt Q05397).
T5 construct: gene PTK2

Assay [12] addresses ULK1 (Homo sapiens, UniProt O75385).
Assay [13] has as its target AKT2 (Homo sapiens, UniProt P31751).
The target of assay [14] is MAPKAPK5 (Homo sapiens, UniProt Q8IW41).
Sequence of MAPKAPK5 (Q8IW41 whole entry): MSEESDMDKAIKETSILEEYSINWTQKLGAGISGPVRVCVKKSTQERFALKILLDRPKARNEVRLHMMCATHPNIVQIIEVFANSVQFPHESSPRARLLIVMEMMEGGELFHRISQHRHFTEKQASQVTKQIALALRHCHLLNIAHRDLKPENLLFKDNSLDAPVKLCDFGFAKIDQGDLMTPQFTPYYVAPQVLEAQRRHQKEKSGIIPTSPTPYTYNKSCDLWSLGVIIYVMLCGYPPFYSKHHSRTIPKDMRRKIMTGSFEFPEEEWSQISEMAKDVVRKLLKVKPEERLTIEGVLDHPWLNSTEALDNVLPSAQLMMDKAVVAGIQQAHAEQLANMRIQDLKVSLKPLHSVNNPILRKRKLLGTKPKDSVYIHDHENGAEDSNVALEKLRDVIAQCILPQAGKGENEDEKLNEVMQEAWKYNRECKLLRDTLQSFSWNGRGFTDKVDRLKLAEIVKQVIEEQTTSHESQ
For assay [15], the target named is BLK (Homo sapiens, UniProt P51451).
Sequence of BLK (P51451 whole entry): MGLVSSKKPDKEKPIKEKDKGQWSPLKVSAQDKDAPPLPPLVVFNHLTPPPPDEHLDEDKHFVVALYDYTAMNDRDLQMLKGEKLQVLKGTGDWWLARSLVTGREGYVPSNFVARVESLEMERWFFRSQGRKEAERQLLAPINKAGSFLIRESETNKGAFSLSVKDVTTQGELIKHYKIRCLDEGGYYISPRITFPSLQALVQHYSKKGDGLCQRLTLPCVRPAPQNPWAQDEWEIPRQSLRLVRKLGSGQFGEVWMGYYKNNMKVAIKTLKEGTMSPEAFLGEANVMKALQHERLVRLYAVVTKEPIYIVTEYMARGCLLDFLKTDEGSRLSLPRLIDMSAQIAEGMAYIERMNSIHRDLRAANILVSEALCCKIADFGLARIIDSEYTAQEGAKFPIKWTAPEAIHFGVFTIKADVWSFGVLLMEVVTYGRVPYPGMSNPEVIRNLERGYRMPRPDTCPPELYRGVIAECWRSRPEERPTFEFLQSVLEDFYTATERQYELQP
Assay [16] has as its target FLT3(K663Q) (Homo sapiens, UniProt P36888, K663Q).
Assay [17] concerns the target T6, JNK1 (Homo sapiens, UniProt P45983).
T6 construct: gene MAPK8

Assay [18] concerns the target KIT(L576P) (Homo sapiens, UniProt P10721, L576P).
For assay [19], the target named is PRKG1 (Homo sapiens, UniProt Q13976).
Assay [20] addresses T7, GCN2(Kin.Dom.2,S808G) (Homo sapiens, UniProt Q9P2K8, S808G).
T7 construct: gene EIF2AK4; Kin.Dom.2

Assay [21] has as its target EPHA7 (Homo sapiens, UniProt Q15375).
The target in assay [22] is MET (Homo sapiens, UniProt P08581).
Sequence of MET (P08581 whole entry): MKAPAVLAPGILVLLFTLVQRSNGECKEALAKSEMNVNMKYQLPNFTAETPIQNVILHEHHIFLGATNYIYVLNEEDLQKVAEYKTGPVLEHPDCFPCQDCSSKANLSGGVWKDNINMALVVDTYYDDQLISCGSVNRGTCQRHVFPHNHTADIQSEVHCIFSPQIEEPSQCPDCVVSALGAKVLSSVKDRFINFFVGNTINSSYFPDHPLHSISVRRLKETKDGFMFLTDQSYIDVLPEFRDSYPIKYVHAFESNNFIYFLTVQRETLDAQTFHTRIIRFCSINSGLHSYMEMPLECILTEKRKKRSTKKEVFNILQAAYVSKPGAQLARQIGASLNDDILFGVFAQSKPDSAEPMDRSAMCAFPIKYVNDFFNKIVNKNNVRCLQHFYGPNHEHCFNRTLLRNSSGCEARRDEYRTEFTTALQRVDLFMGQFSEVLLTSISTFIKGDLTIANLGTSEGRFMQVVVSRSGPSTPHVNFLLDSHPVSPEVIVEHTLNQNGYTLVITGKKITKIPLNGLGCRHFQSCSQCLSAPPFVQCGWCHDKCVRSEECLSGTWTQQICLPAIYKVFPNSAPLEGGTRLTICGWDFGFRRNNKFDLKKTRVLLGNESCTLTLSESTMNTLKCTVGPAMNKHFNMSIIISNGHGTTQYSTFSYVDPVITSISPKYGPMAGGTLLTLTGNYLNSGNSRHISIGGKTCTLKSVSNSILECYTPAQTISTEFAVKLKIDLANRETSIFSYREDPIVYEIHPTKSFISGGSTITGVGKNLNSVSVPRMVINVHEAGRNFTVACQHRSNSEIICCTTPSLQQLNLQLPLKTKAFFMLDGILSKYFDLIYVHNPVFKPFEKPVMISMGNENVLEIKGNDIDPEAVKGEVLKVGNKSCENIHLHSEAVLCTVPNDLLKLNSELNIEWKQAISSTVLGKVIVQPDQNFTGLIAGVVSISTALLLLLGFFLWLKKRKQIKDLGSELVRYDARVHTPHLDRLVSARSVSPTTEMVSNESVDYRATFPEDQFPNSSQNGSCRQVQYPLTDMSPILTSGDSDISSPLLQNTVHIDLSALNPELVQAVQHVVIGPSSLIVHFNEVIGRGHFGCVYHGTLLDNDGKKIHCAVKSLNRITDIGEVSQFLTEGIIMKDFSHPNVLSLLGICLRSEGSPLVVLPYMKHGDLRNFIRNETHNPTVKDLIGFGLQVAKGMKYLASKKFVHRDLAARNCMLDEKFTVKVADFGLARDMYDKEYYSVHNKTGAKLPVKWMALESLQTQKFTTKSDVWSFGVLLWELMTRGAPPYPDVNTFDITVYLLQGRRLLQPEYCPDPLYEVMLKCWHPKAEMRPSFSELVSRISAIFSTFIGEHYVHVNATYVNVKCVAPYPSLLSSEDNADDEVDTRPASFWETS
Assay [23] concerns the target NEK2 (Homo sapiens, UniProt P51955).
For assay [24], the target named is T8, RSK1(Kin.Dom.2-C-terminal) (Homo sapiens, UniProt Q15418).
T8 construct: gene RPS6KA1; Kin.Dom.2-C-terminal

Sequence of HCK (P08631 whole entry): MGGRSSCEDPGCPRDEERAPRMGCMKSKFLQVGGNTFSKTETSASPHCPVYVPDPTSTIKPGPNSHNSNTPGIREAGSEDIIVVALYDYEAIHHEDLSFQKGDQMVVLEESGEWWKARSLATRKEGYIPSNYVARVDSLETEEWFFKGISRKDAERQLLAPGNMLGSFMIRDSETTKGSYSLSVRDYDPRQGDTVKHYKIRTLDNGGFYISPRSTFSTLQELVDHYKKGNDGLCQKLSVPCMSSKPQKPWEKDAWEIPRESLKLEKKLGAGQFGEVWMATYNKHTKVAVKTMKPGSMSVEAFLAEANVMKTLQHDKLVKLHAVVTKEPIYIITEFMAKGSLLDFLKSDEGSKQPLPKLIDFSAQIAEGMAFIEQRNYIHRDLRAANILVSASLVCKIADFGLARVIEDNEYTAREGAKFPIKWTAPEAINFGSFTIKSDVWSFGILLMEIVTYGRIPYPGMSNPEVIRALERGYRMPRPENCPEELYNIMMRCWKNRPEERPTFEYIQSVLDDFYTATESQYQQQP
Sequence of EPHA6 (Q9UF33 whole entry): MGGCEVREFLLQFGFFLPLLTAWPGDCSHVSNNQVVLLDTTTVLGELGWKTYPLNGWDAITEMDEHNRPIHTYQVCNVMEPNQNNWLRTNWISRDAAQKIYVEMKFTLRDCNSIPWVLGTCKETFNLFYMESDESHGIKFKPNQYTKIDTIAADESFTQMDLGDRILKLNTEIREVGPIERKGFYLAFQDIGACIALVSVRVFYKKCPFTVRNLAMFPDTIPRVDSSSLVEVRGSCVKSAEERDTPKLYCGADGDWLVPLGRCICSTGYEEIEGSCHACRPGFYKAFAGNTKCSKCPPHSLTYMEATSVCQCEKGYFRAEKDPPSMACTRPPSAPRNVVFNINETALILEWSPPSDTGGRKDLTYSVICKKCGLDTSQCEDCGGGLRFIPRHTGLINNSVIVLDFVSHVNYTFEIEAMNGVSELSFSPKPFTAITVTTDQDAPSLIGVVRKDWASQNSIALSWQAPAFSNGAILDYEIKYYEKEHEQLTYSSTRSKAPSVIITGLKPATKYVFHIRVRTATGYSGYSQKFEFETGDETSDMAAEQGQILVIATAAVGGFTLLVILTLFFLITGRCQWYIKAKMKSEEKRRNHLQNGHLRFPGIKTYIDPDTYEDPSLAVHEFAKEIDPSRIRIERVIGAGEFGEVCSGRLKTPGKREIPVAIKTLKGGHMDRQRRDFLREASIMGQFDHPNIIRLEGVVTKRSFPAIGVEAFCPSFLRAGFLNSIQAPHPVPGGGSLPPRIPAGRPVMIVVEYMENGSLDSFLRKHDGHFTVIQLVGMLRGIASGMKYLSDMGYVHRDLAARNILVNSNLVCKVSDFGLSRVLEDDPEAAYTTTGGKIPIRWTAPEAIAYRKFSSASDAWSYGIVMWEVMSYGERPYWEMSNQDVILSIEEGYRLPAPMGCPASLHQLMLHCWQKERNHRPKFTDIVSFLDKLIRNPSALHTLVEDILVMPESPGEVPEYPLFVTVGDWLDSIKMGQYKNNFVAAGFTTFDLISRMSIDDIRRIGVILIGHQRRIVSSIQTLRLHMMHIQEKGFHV
T6 sequence (P45983 whole entry): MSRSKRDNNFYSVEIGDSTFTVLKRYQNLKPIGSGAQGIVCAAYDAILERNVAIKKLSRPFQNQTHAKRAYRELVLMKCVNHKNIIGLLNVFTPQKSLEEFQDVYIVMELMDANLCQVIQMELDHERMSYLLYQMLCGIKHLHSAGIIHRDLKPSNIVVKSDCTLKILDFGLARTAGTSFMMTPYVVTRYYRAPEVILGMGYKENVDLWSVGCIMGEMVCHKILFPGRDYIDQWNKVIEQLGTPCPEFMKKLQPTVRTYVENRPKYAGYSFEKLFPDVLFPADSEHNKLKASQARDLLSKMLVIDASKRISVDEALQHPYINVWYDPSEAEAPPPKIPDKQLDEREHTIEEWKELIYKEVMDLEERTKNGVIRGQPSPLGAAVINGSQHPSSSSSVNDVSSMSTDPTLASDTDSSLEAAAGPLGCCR

In the case of `Cc1ccc(NC(=O)c2cccc(C(F)(F)F)c2)cc1Nc1cc(-c2cccnc2)nc2[nH]ccc12` [HZX-02-059], the remaining binding at 1 µM amounted to 100% in assay [1]; 69% in assay [2]; 84% in [3]; 100% in [4]; 80% in [5]; 99% in assay [6]. Besides, the remaining binding at 1 µM in assay [7] worked out at 79%; in assay [8], 100%; in assay [9], 83%; in [10], 89%; in assay [11], 98%; in assay [12], 97%. For the same compound, the remaining binding at 1 µM in [13] turned out to be 85%; in assay [14], 100%; in assay [15], 91%; in assay [16] it was 98%; in assay [17], 84%; in assay [18], 0.3%. Moreover, the remaining binding at 1 µM in [19] was determined as 82%; in [20], 100%; in assay [21] it was 66%; in [22], 94%; in assay [23], 66%; in [24], 100%.

For the origin of these results see paper PMC8799717, “Pharmacological targeting PIKfyve and tubulin as an effective treatment strategy for double-hit lymphoma” (Cell Death Discovery, 2022).
